Test results published in paper PMC6274259, “New 3-Cyano-2-Substituted Pyridines Induce Apoptosis in MCF 7 Breast Cancer Cells” (Molecules, 2016).

Key:
MCF-7 cells [1] = assay: TUNEL assay; type: cell-based, human; settings: 2 μM, 24 h, compared to control group
Description: To ascertain induction of apoptosis of compound 9a on MCF-7 cells, the results were confirmed by immune histochemical analysis using a TUNEL assay. TUNEL assay involves labeling of the 3'-hydroxyl DNA ends generated during DNA fragmentation by means of rTdT and labeled dUTP. The localized fluorescence of apoptotic cells (labeled-dUTP) in a blue background (DAPI) for nuclei staining or green background (FITC) was visualized using fluorescence microscope.
For in situ detection of apoptotic cells, a terminal-deoxynucleotidyl transferase meditated nick end labeling (TUNEL) assay was performed using DeadEndTM fluorimetric tunnel system (Promega, Madison, WI, USA). Cells were cultured on 4-chamber slides (VWR, Radnor, PA, USA) at a density of 2 × 10^4 cells/ chamber. After treatment with compound 9a, cells were washed with phosphate buffer saline (PBS) and fixed by incubation in 4% paraformaldehyde (PFA) for 20 min at 4 °C, then permeabilized with 0.05% Triton X-100 for 5 min at 4 °C. The fixed cells were then incubated with […] dUTP in terminal deoxynucleotide transferase recombinant (rTdT)-catalyzed reaction and nucleotide mixture for 60 min at 37 °C in a humidified atmosphere and then immersed in stop/wash buffer for 15 min at room temperature. Cells were then washed with PBS to remove unincorporated fluorescein-12-dUTP. […]

MCF-7 cells [2] = assay: Enzyme linked immunosorbent apoptosis assay (Cell Death Detection ELISA PLUS); type: cell-based, human
Description: Compound 9a was further investigated for induction of apoptosis in MCF-7 cells using Cell Death Detection ELISA^PLUS which is used for the quantitative in vitro determination of cytoplasmic histone-associated DNA fragments (mono- and oligonucleosomes) in apoptosing cells.
Cells were seeded at a density of 2 × 10^4/ well in a 96-well plate and incubated for 24 h. […] An ELISA assay was performed using Cell Death Detection ELISA PLUS kit (Roche-Applied Science, Indianapolis, IN, USA) for the quantitative in vitro determination of cytoplasmic histone-associated DNA fragments (mono- and oligonucleosomes) in apoptosing cells. Briefly, cells were lysed with 200-μL lysis buffer for 30 min at room temperature. The lysate was centrifuged at 200 g for 10 min. 150 μL of supernatant was collected, of which 20 μL was incubated with anti-histone biotin and anti-DNA peroxidase at room temperature for 2 h. After washing with incubation buffer three times, 100 μL of substrate solution (2,2′-azino-di(3-ethylbenzthiazolinsulphonic acid) was added to each well and incubated for 15–20 min at room temperature. The absorbance was measured using an ELISA reader (Spectra Max Plus) at 405 nm. The control group was cells without compounds treatment. Each assay was done in triplicate and the standard deviation was determined.

[3] = system: RKO human colon carcinoma cell line; assay: WST-1 cell viability assay, RKO; type: cell-based; settings: Homo sapiens, Colon carcinoma cell; WST-1, 24 h treatment, mean ± S.D of three independent experiments
Description: (§1) The synthesized compounds were screened for their cytotoxicity on five cancer cell lines, namely SK-OV-3, MCF-7, MDA-MB-231, HCT-116 and RKO, using a WST colorimetric assay. The assay principle is based upon the reduction of the tetrazolium salt WST-1 to formazan by cellular mitochondrial dehydrogenases present in viable cells. […] Among the latter compounds the benzohydrazide derivative 9a emerged with the lowest IC50 in this study against MCF-7 cells compared to 5-FU. […] Based on the fact that 9a had less cytotoxic effects on normal breast epithelial cells it was subjected to further studies.
(§2) The following cell lines were used for the screening stage, obtained from the American Type Culture Collection (ATCC, Manassas, VA, USA); SK-OV-3 (HTB-77), MCF-12A (ATCC CRL-10782), MDA-MB-231 (ATCC HTB-26), HCT-116 (CCL-247), RKO (CRL-2577) and sub-culturing of the above cell lines was conducted in 75 cm^2 flasks. The old culture media was removed and discarded after assessing the confluency of the cells and the cells were rinsed with 2–3 mL diluted trypsin (1×) (trypsin/EDTA solution consists of 0.025% trypsin and 0.01% EDTA in PBS), for about 5 minutes for complete detachment. The cells were observed under the inverted microscope until the cell layer is completely dispersed. 75 cm^2 flasks were prepared and 16 mL of DMEM media for SK-OV-3, MCF-7, MDA-MB-231, (DMEM 4500 mg glucose) and RPMI media for HCT-116 were added to each flask. The cells were aspirated gently and added to the flasks. DMEM 4500 mg/L high glucose with 10% FBS, 5% streptomycin and penicillin, RPMI 1640 (prepared by adding 5% heat-inactivated FCS and 2 mm glutamine) were used. DMEM was also used for MCF-12A cells with the addition of human epidermal growth factor 20 ng/mL, insulin 0.01 mg/mL and hydrocortisone 500 ng/mL.
(§3) The synthesized compounds were screened for their anti-proliferative activity using 5-FU (F6627-1G, Sigma-Aldrich, St. Louis, MO, USA) as reference compound. A concentration of 0.4% DMSO was used in all experiment after ensuring 100% viability of the cell lines with this concentration. A 25 mM stock concentration of all compounds was prepared for further studies and analysis.
(§4) Cells were trypsinized and placed in a 15 mL Falcon tube, the cells were centrifuged for 3 min at 1000 rpm. Trypsin is decanted using a sterile pipette and then the pellet is loosened by flicking the tube few times then 5–10 mL warm DMEM or RPMI were added to the Falcon tube and the pellet is resuspended. Cell count was done next by taking 10 μL of the suspension into the cell counting slide and read under 10× cells/mL. A cell stock of 50,000 cells/mL was prepared for the 96 wells. Cells (100 μL) were added to each well using a sterile pipette each time to ensure consistency. The experiment was planned ahead of time using excel sheet, 3–6 wells were reserved as blank media while 3–6 wells for vehicle (DMSO). The plate was incubated for 24 h for compound treatment step. DMEM media was used to prepare different dilutions of the compounds. The old DMEM media was removed from the wells using sterile pipette in the hood and the media was replaced with 100 μL media with each compound. The plate was incubated for 24 h. After 24 h incubation, WST-1 reagent (Sigma) was added to each well and then the plate was incubated for 1 h before measuring the absorbance using VICTOR™ Multilabel Plate Reader (Perkin Elmer, Beaconsfield, UK). The absorbance of the colored solution can be quantified by measuring at a certain wavelength (usually between 500–600 nm), in this experiment the first reading was conducted at 540 nm and the second reading at 690 nm for the reference wavelength. The percentage of cell viability was determined as the ratio of the absorbance of the sample vs the control. Three independent experiments were performed. […] 5-Florouracil (Sigma-Aldrich, F6627-1G) was used as reference standard.

[4] = system: MCF-7 human breast adenocarcinoma cell line; assay: WST-1 cell viability assay, MCF-7; type: cell-based; settings: for IC50: WST-1, 24 h treatment, mean ± S.D of three independent experiments
Description: as §1, §2, §3, §4

- IC50 [3]: 8220 ± 990 nM
- IC50 ([4]; Homo sapiens, MCF7, 24 h): 2000 nM
- IC50 [4]: 2040 ± 130 nM
SMILES: COc1ccc(-c2cc(-c3ccc(OC)c(OC)c3)c(C#N)c(OCC(=O)NNC(=O)c3ccccc3)n2)cc1OC [Compound 9a, N'-[2-(3-cyano-4,6-bis(3,4-dimethoxyphenyl)pyridin-2-yloxy)acetyl]benzohydrazide]
- TUNEL staining (MCF-7 cells [1]): presence of nuclear condensation and TUNEL-positive cells
- induction of apoptosis, concentration dependence (MCF-7 cells [2]; 0.1 to 4 μM): increased in a dose dependent fashion
- induction of apoptosis, exposure time with optimum value (MCF-7 cells [2]; exposure 3 h to 48 h): 24 h
- viability at 2 µM ([4]; Homo sapiens, MCF7, 2 μM, 24 h, WST-1, read-out: cell viability in MCF-7 cells): ~50%
